# Reference: article PMC10808720 (Frontiers in Pharmacology, 2024)
# What was measured:
# Assay type in all cases: cell-based, human adenovirus (HAdV5)
# [1] = system: HAdV-RFP; experiment: Direct interaction of rotenone with HAdV particles (pre-incubated virions, RFP expression); settings: virions pre-incubated with 0.1 µM; 48 h; A549
# Experimental: These treated virions were then added to A549 cells and incubated for 1 h on ice, to allow the HAdV particles to attach to the cells.
# [2] = system: HAdV5; experiment: HAdV-mediated endosome disruption (α-sarcin co-delivery, HPG incorporation)
# Experimental: A549 cells (2 × 10^4 cells/well) were incubated in DMEM without cysteine or methionine supplemented with 10% dialyzed FBS [DMEM(−)] in black 96-well plates for 1 h prior to infection. Three-fold serial dilutions (0.45 ng–1,000 ng) of HAdV5, or AdV2ts1 were preincubated with cells in the presence of 10-fold IC50 concentration of the compounds obtained in the plaque assay or the same volume of DMSO for positive control for 1 h. The medium was then removed and replaced with 50 μL DMEM(−) containing 0.1 mg/ml α-sarcin (Santa Cruz Biotechnology, Dallas, Texas, USA) and drug mixtures. After 1 h at 37°C, the Click-iT L-homopropargylglycine (HPG) Alexa Fluor 488 Protein Synthesis Assay Kits (Invitrogen) was used to analyse protein synthesis according to the manufacturer’s instructions. The incorporation of the amino acid analogue of methionine HPG containing Alexa Fluor 488 azide was measured using a Typhoon 9410 imager (GE Healthcare Life Sciences) and calculated by subtracting the background level of the control well containing HPG and α-sarcin but not the virus (100% incorporation).
# [3] = system: wild-type HAdV5; experiment: HAdV/tubulin colocalization (confocal microscopy); settings: 0.05 μM; 90 min after synchronized infection; A549
# Experimental: The coverslips were previously washed with acetone, distilled water and absolute ethanol sequentially, and washed with 1x PBS, and treated with poly-L-lysine (Merck, Darmstadt, Germany) for 1 h, and washed again twice with 1x PBS. […] The infection was synchronized for 1 h on ice, excess virus was removed, and the cells were incubated for 90 min at 37°C and 5% CO2. Finally, the cells were fixed with methanol/acetone 50% for 10 min at −20°C whereupon nonspecific unions were blocked with PBS/BSA 10% for 1 h at room temperature. The cells were then incubated with hexon protein mouse monoclonal IgG (DSHB, Iowa City, USA) and anti-gamma-tubulin antibody marked by Alexa Fluor® 647 (Abcam, Cambridge, UK) for 60 min at room temperature. After rinsing with 1x PBS, the cells were incubated with Alexa Fluor 488 goat anti-mouse IgG (Thermo Fisher Scientific, MA, USA) for 20 min at room temperature, and DAPI (Merck) was added for 5 min to stain the nucleus. Finally, coverslips were fixed on the slides with a mounting medium prepared from one part of 10x PBS and 9 parts of glycerol and stored in the dark overnight at 4°C. […] The Z-series was analyzed by first determining the region of interest and then measuring the fluorescence signal using ImageJ.
# [4] = system: HAdV5-GFP; experiment: HAdV time of addition assay; settings: 10-fold IC50
# Experimental: The anti-HAdV effect of these natural compounds at different time-points was measured through a time-curve assay using 293β5 cells (3 × 10^4 cells/well in Corning black wall, clear bottom 96-well plates) infected with HAdV5-GFP (MOI 2,000 vp/cell) in the presence of 100 μL of complete DMEM containing 10-fold IC50 concentration of each comound obtained in the plaque assay for each compound or the same volume of DMSO (positive control). A standard infection curve was generated in parallel by infecting cells in the absence of compounds using 2-fold serial dilutions of the virus from an MOI of 2,000 vp/cell in order to extrapolate the GFP resulting from each molecule with its corresponding MOI.
# Parallel samples of HAdV5 were incubated with or without the selected compounds on ice for 1 h. HAdV5 was then added to 293β5 cells and incubated at 37°C. Compounds were then added at the indicated time points until the last time point at 2 h. Then, the cells were incubated for an additional 48 h at 37°C and 5% CO2 before being analyzed for GFP expression using a Typhoon 9410 imager (GE Healthcare Life Sciences) and ImageQuantTL (GE Healthcare Life Sciences), as we described earlier.
compound,measurement,setting,value
"C=C(C)[C@H]1Cc2c(ccc3c2O[C@@H]2COc4cc(OC)c(OC)cc4[C@@H]2C3=O)O1 [Rotenone, (2R,6aS,12aS)-8,9-dimethoxy-2-(prop-1-en-2-yl)-1,2,12,12a-tetrahydrochromeno[3,4-b]furo[2,3-h]chromen-6-(6aH)-one]","level of RFP inhibition, cells incubated with vs without rotenone after attachment",[1],no differences
same,HPG incorporation,"[2]; compared with a control without α-sarcin, 10-fold IC50, independent of virus concentration",approximately 30%
same,attenuation of HAdV-mediated endosomolysis,[2]; α-sarcin assay,did not attenuate
same,colocalization of HAdV particles with the tubulin,[3],lower level of colocalization
same,time dependence of inhibitory activity,[4]; addition up to 2 h,sharp loss of inhibitory activity
same,loss of inhibitory activity,[4]; compound added at 10 min p.i.,more than 25%
same,loss of inhibitory activity,[4]; compound added at 40 min p.i.,more than 60%
